Test results as given in US20040072746A1, “Inhibitors of monocarboxylate transport” (priority 2001, published 2004).

Assays:
[1] = MCT filter binding assay, yeast membranes transformed with vector only; conditions: ~2.5 nM radioligand
Experimental: (§1) For yeast cells transformed with expression plasmids containing the human MCT 1-4 ORFs the ability of membrane preparations to bind radioligand was determined using a single ligand concentration/multi protein concentration binding assay. This generated an estimate of the amount of active binding protein present in each membrane preparation. The ligand concentration used will give an estimate of Bmax that is approximately 90% of the true value. 10 μl of ligand A, B or C that had been diluted 50 fold with assay buffer (50 mM HEPES, 0.1 mM EDTA, 0.15 M NaCl, pH 7.5, 0.5% BSA) was dispensed into wells of a polypropylene microtitre plate. This gives a final radiolabelled ligand concentration of ˜2.5 nM. […] The membranes were diluted to give a known amount/180 μl assay buffer. This is typically in the […] range. For the membranes with high binding site number a more dilute membrane preparation should be added. 180 μl of each membrane solution was then added to each well and incubated at 2 hours at room temperature with shaking. The membranes were harvested onto GF-B filter plates and washed with assay buffer without BSA, dried, scintillant added and counts detected using the relevant program for each ligand on a Packard Top Count plate reader.

human MCT3 = target: T1, human MCT3 (Homo sapiens, UniProt O95907); test: MCT filter binding assay, yeast membranes, radioligand specific binding; conditions: ~2.5 nM radioligand
T1 construct: the full length open reading frame of human MCT3 was subcloned into the S. cerevisiae expression plasmid pACES14; made in house; host or cells: Saccharomyces cerevisiae BY4742 (jen1 deletion), membrane preparation; plasmid pACES14-hMCT3
T1 sequence (O95907 1-504): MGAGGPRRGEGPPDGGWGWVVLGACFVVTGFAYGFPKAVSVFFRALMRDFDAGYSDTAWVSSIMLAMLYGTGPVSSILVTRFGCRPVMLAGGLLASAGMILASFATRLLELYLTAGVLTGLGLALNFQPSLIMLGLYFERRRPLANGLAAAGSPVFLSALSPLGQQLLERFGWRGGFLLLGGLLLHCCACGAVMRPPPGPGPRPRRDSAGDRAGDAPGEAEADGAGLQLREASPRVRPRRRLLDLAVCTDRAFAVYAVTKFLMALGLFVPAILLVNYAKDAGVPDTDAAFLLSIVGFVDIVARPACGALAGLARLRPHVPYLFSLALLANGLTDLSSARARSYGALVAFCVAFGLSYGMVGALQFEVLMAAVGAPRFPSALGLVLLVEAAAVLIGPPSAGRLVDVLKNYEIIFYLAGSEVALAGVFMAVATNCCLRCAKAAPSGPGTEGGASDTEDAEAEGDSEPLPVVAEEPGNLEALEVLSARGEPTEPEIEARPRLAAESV
Experimental: as §1

Jurkat T-cell membranes = type: binding, human
Experimental: Cells were harvested by centrifugation at 1500 g for 10 minutes. The cell pellets were washed twice with phosphate buffered saline (PBS) and centrifuged as above. The final cell pellet was resuspended in lysis buffer (50 mM HEPES (pH 7.8), 50 mM KCl, 10% glycerol, 0.1 mM EDTA, 1 mM DTT) and lysed by nitrogen cavitation. Unlysed cells and nuclei were removed by centrifugation at 1500 g for 10 minutes. The supernatant was then centrifuged at 100,000 g for 30 minutes at 4° C., and the pellet resuspended and homogenised in assay buffer (50 mM HEPES (pH 7.5), 1 mM EDTA, 150 mM NaCl). Aliquots of membrane preparation were stored at −80° C. until use.
Frozen Jurkat cell membranes were thawed on ice and then homogenised. Wheatgerm agglutinin-linked Scintillation Proximity Assay beads (Amersham) were rehydrated in assay buffer to a concentration of 100 mg/ml. 2 ml of Jurkat membranes were added per 0.5 ml (50 mg) of SPA beads and incubated overnight with constant agitation to allow the beads to coat with Jurkat membranes. […] 10 μl of test compound and 10 μl of radioligand were incubated with 180 μl of SPA beads and membranes (0.04 mg beads). […] The plates were incubated for 3 hours at room temperature before quantitation of radioactivity proximal to the SPA beads by scintillation counting.

MCT1 = target: T2, MCT1 (Homo sapiens, UniProt P53985, D490E); test: MCT filter binding assay, yeast membranes, radioligand specific binding; set-up: made in house; host or cells: Saccharomyces cerevisiae BY4742 (jen1 deletion), membrane preparation; plasmid pACES14-hMCT1; conditions: ~2.5 nM radioligand
T2 sequence (P53985 1-500 D490E): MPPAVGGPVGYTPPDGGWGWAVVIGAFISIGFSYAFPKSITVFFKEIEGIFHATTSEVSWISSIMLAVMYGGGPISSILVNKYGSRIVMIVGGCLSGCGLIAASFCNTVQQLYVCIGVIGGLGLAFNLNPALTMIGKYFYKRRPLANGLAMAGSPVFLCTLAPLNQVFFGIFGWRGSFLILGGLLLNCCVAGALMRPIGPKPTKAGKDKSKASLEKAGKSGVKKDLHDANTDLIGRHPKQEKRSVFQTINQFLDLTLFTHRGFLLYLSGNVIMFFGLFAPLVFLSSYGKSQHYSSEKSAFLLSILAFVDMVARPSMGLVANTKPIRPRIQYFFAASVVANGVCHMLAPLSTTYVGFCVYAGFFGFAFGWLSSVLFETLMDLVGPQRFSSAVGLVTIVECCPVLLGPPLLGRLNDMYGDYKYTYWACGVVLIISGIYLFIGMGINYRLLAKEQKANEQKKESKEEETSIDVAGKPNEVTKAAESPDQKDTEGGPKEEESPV
Experimental: as §1

In the case of CC(C)Cc1nn(C)c(=O)c2c(SCCCO)n(Cc3ccccc3[125I])cc12 [Ligand A, 2,6-Dihydro-7-[(3-hydroxypropyl)thio]-6-[(2-[^125I]iodophenyl)methyl]-2-methyl-4-(2-methylpropyl)-1H-pyrrolo[3,4-d]pyridazin-1-one], the “Specific binding (cpm) Average” value ([1]; vector (2 ug)) is reported as 1735 cpm, the “Specific binding (cpm) Average” value ([1]; vector (20 ug)) is reported as 0 cpm and the “Specific binding (cpm) Average” value (human MCT3; MCT3 (2 ug)) is reported as 0 cpm. For the same molecule, the “Specific binding (cpm) Average” value (human MCT3; MCT3 (20 ug)) was 0 cpm, the “125I-ligand A binding (cpm), Specific binding (Total - Non-specific)” value (Jurkat T-cell membranes) was 1991 cpm and the “125I-ligand A binding (cpm), Total binding” value (Jurkat T-cell membranes; approximately 0.1 nM radioligand, vehicle alone) was 2490 ± 32 cpm. For the same molecule, the “125I-ligand A binding (cpm), Non-specific binding” value (Jurkat T-cell membranes; in the presence of 1 μM Ligand 1) was 499 ± 20 cpm, the “Specific binding (cpm) Average” value (MCT1; MCT1 (2 ug)) was 88841 cpm and the “Specific binding (cpm) Average” value (MCT1; MCT1 (20 ug)) was 177453 cpm.
